According to ChEMBL document CHEMBL3596126, “Synthesis, molecular docking and anticancer studies of peptides and iso-peptides” (Bioorg Med Chem Lett, 2015):
Where a SMILES comes first, the peptide text is derived from it. Side-chain parts run from the residue outwards. The star is where a group is joined. Cbz = O=C(OCc1ccccc1)*; Boc = CC(C)(C)OC(=O)*

Columns and labels:
[1] = target: NAD(P)H dehydrogenase [quinone] 1 (Mus musculus) (UniProt Q64669); experiment: Activation of Quinone reductase-1 in mouse Hepa-1c1c7 cells assessed as induction ratio at 20 ug/ml after 48 hrs by MTT assay; type: cell-based
NAD(P)H dehydrogenase [quinone] 1 (Mus musculus), sequence (Q64669 whole entry): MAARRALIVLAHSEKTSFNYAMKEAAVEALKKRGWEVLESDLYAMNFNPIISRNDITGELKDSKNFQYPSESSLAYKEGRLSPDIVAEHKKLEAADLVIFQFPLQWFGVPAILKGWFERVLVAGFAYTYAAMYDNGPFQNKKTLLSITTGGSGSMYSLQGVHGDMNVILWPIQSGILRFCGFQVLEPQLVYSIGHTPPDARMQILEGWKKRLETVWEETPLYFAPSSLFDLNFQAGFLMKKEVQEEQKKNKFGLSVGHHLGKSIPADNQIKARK

HEK293 = experiment: Inhibition of TNF-alpha activated nuclear factor-kappa B in HEK293 cells at 20 ug/ml after 6 hrs by luciferase reporter gene assay relative to control; type: cell-based; conditions: Homo sapiens
[2] = Cytotoxicity against HEK293 cells assessed as cell survival at 20 ug/ml after 6 hrs by SRB assay relative to control; type: cell-based; conditions: human, read-out: Survival
MCF7 = experiment: Cytotoxicity against human MCF7 cells assessed as cell survival at 20 ug/ml relative to control; type: functional; conditions: read-out: Survival
MDA-MB-231 = experiment: Cytotoxicity against human MDA-MB-231 cells assessed as cell survival at 20 ug/ml relative to control; type: functional; conditions: read-out: Survival
[3] = Inhibition of TNF-alpha activated nuclear factor-kappa B in HEK293 cells after 6 hrs by luciferase reporter gene assay; type: cell-based; conditions: Homo sapiens, HEK293, 6 h

Row | IC50 [3] [µM] | Structure (SMILES) | Ratio [1] | inhibition (HEK293) [%] | viability at 6 h, 20 ug/ml [2] [%] | viability at 20 µg/mL (MCF7) [%] | viability at 20 µg/mL (MDA-MB-231) [%]
1 | – | C[C@H](NC(=O)OCc1ccccc1)C(=O)N[C@@H](Cc1ccccc1)C(=O)n1nnc2ccccc21 | 1.2 | 49.6 | 104 | 59.3 | 91.4
2 | – | C[C@H](OC(=O)CNC(=O)OC(C)(C)C)[C@H](NC(=O)[C@@H](N)Cc1ccccc1)C(=O)O | 1 | 26.3 | 103 | 93.8 | 93.9
3 | – | CC(C)(C)OC(=O)NCC(=O)OC[C@H](NC(=O)[C@H](Cc1ccccc1)NC(=O)OCc1ccccc1)C(=O)O | 1.1 | -5.2 | 136 | 142 | 92.1
4 | – | C[C@H](NC(=O)OC(C)(C)C)C(=O)n1nnc2ccccc21 | 1.2 | 35.7 | 122 | 75.8 | 90.9
5 | – | C[C@H](NC(=O)OCc1ccccc1)C(=O)N[C@H](C(=O)O)[C@H](C)O | 1.7 | – | 116 | 106 | 92.8
6 | – | c1ccc2[nH]nnc2c1 [BENZOTRIAZOLE] | 1.2 | 3.6 | 99.7 | 104 | 103
7 | – | CC(C)(C)OC(=O)NCC(=O)OC[C@@H](NC(=O)[C@H](Cc1ccccc1)NC(=O)OCc1ccccc1)C(=O)O | 1.1 | 10.1 | 121 | 126 | 106
8 | – | O=C(N[C@@H](Cc1ccccc1)C(=O)N[C@H](CO)C(=O)O)OCc1ccccc1 | 1.5 | 24.5 | 122 | 69.5 | 97.4
9 | – | C[C@H](NC(=O)OCc1ccccc1)C(=O)N[C@@H](CO)C(=O)O | 1.1 | 13.9 | 110 | 78.6 | 98.1
10 | – | O=C(N[C@@H](Cc1ccccc1)C(=O)n1nnc2ccccc21)OCc1ccccc1 | 1.3 | – | 104 | 74.2 | 98
11 | – | O=C(N[C@@H](Cc1ccccc1)C(=O)NCC(=O)n1nnc2ccccc21)OCc1ccccc1 | 0.9 | 12.2 | 96.9 | 93.2 | 106
12 | – | C[C@H](NC(=O)OCc1ccccc1)C(=O)n1nnc2ccccc21 | 1 | 32.6 | 126 | 104 | 106
13 | – | C[C@H](NC(=O)OCc1ccccc1)C(=O)N[C@@H](COC(=O)CNC(=O)OC(C)(C)C)C(=O)O (Cbz-Ala-Ser([Gly-Boc])-OH) | 2.5 | 22 | 108 | 110 | 104
14 | – | C[C@H](O)[C@H](NC(=O)[C@H](Cc1ccccc1)NC(=O)OCc1ccccc1)C(=O)O | 2.2 | 55.7 | 122 | 58.3 | 104
15 | 5.05 | Cc1ccc(S(=O)(=O)N[C@@H](Cc2ccccc2)C(=O)CCl)cc1 [TPCK] | – | – | – | – | –
16 | – | CC(C)(C)OC(=O)NCC(=O)OC[C@H](NC(=O)[C@@H](N)Cc1ccccc1)C(=O)O (H-Phe-Ser([Gly-Boc])-OH) | 2.4 | 14.8 | 121 | 104 | 99.4
17 | – | C[C@H](NC(=O)OCc1ccccc1)C(=O)N[C@@H](Cc1ccccc1)C(=O)O | 1.1 | 18.7 | 113 | 63.9 | 98.9
18 | – | O=C(N[C@@H](Cc1ccccc1)C(=O)N[C@@H](CO)C(=O)O)OCc1ccccc1 | 1.2 | 18.3 | 119 | 75.8 | 99.9
19 | – | C[C@H](NC(=O)OCc1ccccc1)C(=O)N[C@H](CO)C(=O)O | 0.9 | 10.7 | 123 | 66.3 | 94.9
20 | – | C[C@H](OC(=O)CNC(=O)OC(C)(C)C)[C@H](NC(=O)[C@H](Cc1ccccc1)NC(=O)OCc1ccccc1)C(=O)O | 0.9 | -4.1 | 122 | 114 | 83.9
21 | – | CC(C)(C)OC(=O)NCC(=O)n1nnc2ccccc21 | 1.1 | 41.3 | 110 | 90.3 | 108
